Measurements: patent US10947202B2, “Sodium ion channel inhibitors and pharmaceutically acceptable salts and polymorphs thereof and uses thereof” (SHANGHAI HAIYAN PHARMACEUTICAL TECHNOLOGY CO., LTD., priority 2017, dated 2021)
Converted amounts (≈) assume the structure as drawn.

How the values were obtained:
Assay type in all cases: physicochemical
[1] = Stability experiment (storage of crystal forms, HPLC)
Description: High performance liquid chromatography spectrum was acquired on an Agilent 1260 HPLC, the specific instrument and test parameters are shown in the table 18 below.
Another set of samples were sealed at 5° C. and kept as a control at the same time. […]

[2] = Hygroscopicity experiment (DVS)
Description: The Dynamic Vapor Sorption (DVS) curve was acquired on the DVS Intrinsic of Surface Measurement Systems.
The DVS results for crystal forms A, D, E-3 and F are shown in FIG. 1E, FIG. 4F, FIG. 7E and FIG. 8E, respectively.

Solubility experiment = settings: for Solubility (mg/mL) 0.1M HCl / Solubility (mg/mL) H2O: room temperature; for Solubility (mg/mL) pH6.8: buffer pH 6.8, room temperature; for Solubility (mg/mL) H2O: water
Description: The solubility of crystal forms A, D, E-1, E-3, F and free base sample in buffer of 0.1M HCl, pH 4.5, pH 6.8 and water was tested at room temperature. In the test, the standard curves of free base sample and five crystal forms were plotted. Subsequently, 6 mg of API and five crystal form samples were weighed, respectively, and 2 ml of the solvent was added, the mixture was shaken at room temperature for 4 h, then ultrasonicated for 30 min, centrifuged, and the supernatant was taken out, filtered through a 0.45 μm filter and injected, and the solubility was measured, the results are shown in Table 28 (concentration is in mg/ml).

[3] = Crystal form stability on shaking in solvent or heating (XRPD); settings: for crystal form after shaking of mixed forms: crystal forms III and IV mixed in ACE and MeOH, shaken at 50° C. for 1 day
Description: The reaction solution in the step 4 of Example 1 was poured into water, extracted with ethyl acetate, dried and concentrated, ethanol was added to dissolve and the solution was evaporated, 1N hydrochloric acid and ethyl acetate were added and stirred for 1-2 h, filtered, a solid product which was the crystal form III of free base was obtained, the X-ray powder diffraction pattern is shown in FIG. 11A (the 2θ angle has been marked), the DSC/TGA/DVS patterns are shown in FIGS. 11B, 11C and 11D. According to the DSC pattern, there is an inflection point around 100° C., and the sample has a melting absorption peak at 181.9° C. […] The sample was shaken in ACE and MeOH at 50° C. for 1 day, and the crystal form was unchanged.
The reaction solution in the step 4 of Example 1 was poured into water, extracted with ethyl acetate, dried and concentrated to retain a small amount of ethyl acetate, 1N hydrochloric acid was added and stirred for 1 h, filtered, the filter cake was washed with ethanol and then filtered to obtain a solid product which was the crystal form IV of free base was obtained. The X-ray powder diffraction pattern is shown in FIG. 12A (the […] has been marked), the DSC/TGA/DVS patterns are shown in FIGS. 12B, 12C and 12D. […] The sample was shaken in ACE at 50° C. for 1 day, and the crystal form was unchanged. […]

[4] = 5° C. 0 d, — = below detection limit
[5] = 40° C. 75% RH 14 d, — = below detection limit
[6] = 60° C. 7 d, — = below detection limit
[7] = 60° C. 21 d, — = below detection limit
[8] = buffer pH 4.5, room temperature

Compound | RRT (%) 0.86 ([1]; 5° C. 0 d) [%] | RRT (%) 1.00 ([1]; 5° C. 0 d) [%] | RRT (%) 1.05 ([1]; 5° C. 0 d) [%] | Total impurities (%) ([1]; 5° C. 0 d) | Content (%) ([1]; 40° C. 75% RH 14 d) | RRT (%) 1.00 ([1]; 40° C. 75% RH 14 d) [%] | RRT (%) 1.05 ([1]; 40° C. 75% RH 14 d) [%] | Total impurities (%) ([1]; 40° C. 75% RH 14 d) | Content (%) ([1]; 60° C. 7 d) | RRT (%) 0.86 ([1]; 60° C. 7 d) [%] | RRT (%) 1.00 ([1]; 60° C. 7 d) [%] | RRT (%) 1.05 ([1]; 60° C. 7 d) [%] | Total impurities (%) ([1]; 60° C. 7 d) | Content (%) ([1]; 60° C. 21 d) | RRT (%) 1.00 ([1]; 60° C. 21 d) [%] | RRT (%) 1.05 ([1]; 60° C. 21 d) [%] | hygroscopicity (DVS curve) [2] | Solubility (mg/mL) 0.1M HCl (Solubility experiment) [mg/mL] | Solubility (mg/mL) pH6.8 (Solubility experiment) [mg/mL] | Solubility (mg/mL) H2O (Solubility experiment) [mg/mL] | further results
Cc1cc(N2CCN(Cc3cc(F)c(C(=O)NS(=O)(=O)C4CC4)cc3Cl)CC2)ccc1Cl [crystal form A, 5-chloro-4-((4-(4-chloro-3-methylphenyl)piperazin-1-yl)methyl)-N-(cyclopropylsulfonyl)-2-fluorobenzamide] | 0.05 | 99.84 | 0.04 | 0.16 | 99.8 | 99.83 | 0.02 | 0.17 | 98.6 | 0.05 | 99.84 | 0.02 | 0.16 | 97.6 | 99.82 | 0.03 | slightly hygroscopic | 0.011 (≈ 22 µM) | 0.01 | 0.005 (≈ 9.99 µM) | RRT (%) 0.79 [1, 4]: 0.07%; RRT (%) 0.79 [1, 5]: 0.07%; RRT (%) 0.88 [1, 5]: 0.04%; RRT (%) 0.79 [1, 6]: 0.08%; Total impurities (%) ([1]; 60° C. 21 d): 0.18%; RRT (%) 0.79 [1, 7]: 0.07%; RRT (%) 0.86 [1, 7]: 0.02%; RRT (%) 0.88 [1, 7]: 0.05%; moisture absorbed (DVS) ([2]; at 95% RH): 0.4%; Solubility (mg/mL) pH4.5 (Solubility experiment; [8]): 0.001 mg/mL
Cc1cc(N2CCN(Cc3cc(F)c(C(=O)NS(=O)(=O)C4CC4)cc3Cl)CC2)ccc1Cl [crystal form D, 5-chloro-4-((4-(4-chloro-3-methylphenyl)piperazin-1-yl)methyl)-N-(cyclopropylsulfonyl)-2-fluorobenzamide] | 0.03 | 99.90 | 0.03 | 0.11 | 100.2 | 99.90 | 0.03 | 0.09 | 98.9 | 0.03 | 99.90 | 0.03 | 0.11 | 99.1 | 99.91 | 0.03 | almost no hygroscopicity | 0.018 (≈ 36 µM) | 0.016 | 0.005 (≈ 9.99 µM) | RRT (%) 0.79 [1, 4]: 0.04%; RRT (%) 0.79 [1, 5]: 0.04%; RRT (%) 0.88 [1, 5]: 0.02%; RRT (%) 0.79 [1, 6]: 0.04%; Total impurities (%) ([1]; 60° C. 21 d): 0.09%; RRT (%) 0.79 [1, 7]: 0.04%; RRT (%) 0.88 [1, 7]: 0.02%; moisture absorbed (DVS) ([2]; at 95% RH): 0.07%; Solubility (mg/mL) pH4.5 (Solubility experiment; [8]): 0.002 mg/mL
Cc1cc(N2CCN(Cc3cc(F)c(C(=O)NS(=O)(=O)C4CC4)cc3Cl)CC2)ccc1Cl [crystal form E-1, 5-chloro-4-((4-(4-chloro-3-methylphenyl)piperazin-1-yl)methyl)-N-(cyclopropylsulfonyl)-2-fluorobenzamide] |  |  |  |  |  |  |  |  |  |  |  |  |  |  |  |  |  | 0.019 (≈ 38 µM) | 0.035 | >2.669 | Solubility (mg/mL) pH4.5 (Solubility experiment; [8]): 0.002 mg/mL
Cc1cc(N2CCN(Cc3cc(F)c(C(=O)NS(=O)(=O)C4CC4)cc3Cl)CC2)ccc1Cl [crystal form E-3, 5-chloro-4-((4-(4-chloro-3-methylphenyl)piperazin-1-yl)methyl)-N-(cyclopropylsulfonyl)-2-fluorobenzamide] | 0.08 | 99.79 | 0.06 | 0.26 | 106.4 | 99.71 | 0.04 | 0.29 | 99.5 | 0.08 | 99.78 | 0.06 | 0.22 | 105.1 | 99.71 | 0.04 | has hygroscopicity | 0.016 (≈ 32 µM) | 0.096 | >2.780 | RRT (%) 0.54 [1, 4]: 0.13%; RRT (%) 0.54 [1, 5]: 0.09%; RRT (%) 0.86 [1, 5]: 0.07%; RRT (%) 0.54 [1, 6]: 0.09%; Total impurities (%) ([1]; 60° C. 21 d): 0.30%; RRT (%) 0.54 [1, 7]: 0.08%; RRT (%) 0.86 [1, 7]: 0.07%; moisture absorbed (DVS) ([2]; when RH is 85%): 2%; solubility at 4 h (Solubility experiment; buffer pH 4.5, pH 4.5, aqueous buffer, thermodynamic from solid, buffer pH 4.5, room temperature, read-out: Solubility (mg/mL) pH4.5): 0.002 mg/mL (≈ 4 µM)
Cc1cc(N2CCN(Cc3cc(F)c(C(=O)NS(=O)(=O)C4CC4)cc3Cl)CC2)ccc1Cl [crystal form F, 5-chloro-4-((4-(4-chloro-3-methylphenyl)piperazin-1-yl)methyl)-N-(cyclopropylsulfonyl)-2-fluorobenzamide] | 0.05 | 99.86 | 0.03 | 0.14 | 98.4 | 99.90 | 0.04 | 0.10 | 99.7 | 0.03 | 99.87 | 0.04 | 0.13 | 101.0 | 99.80 | 0.03 | has hygroscopicity | 0.017 (≈ 34 µM) | 0.050 | >3.154 | RRT (%) 0.79 [1, 4]: 0.06%; RRT (%) 0.79 [1, 5]: 0.04%; RRT (%) 0.79 [1, 6]: 0.06%; Total impurities (%) ([1]; 60° C. 21 d): 0.20%; RRT (%) 0.79 [1, 7]: 0.05%; RRT (%) 0.86 [1, 7]: 0.03%; RRT (%) 0.88 [1, 7]: 0.02%; moisture absorbed (DVS) ([2]; when RH is 85%): 4%; Solubility (mg/mL) pH4.5 (Solubility experiment; [8]): 0.002 mg/mL
Cc1cc(N2CCN(Cc3cc(F)c(C(=O)NS(=O)(=O)C4CC4)cc3Cl)CC2)ccc1Cl [crystal form I, 5-chloro-4-((4-(4-chloro-3-methylphenyl)piperazin-1-yl)methyl)-N-(cyclopropylsulfonyl)-2-fluorobenzamide] |  |  |  |  |  |  |  |  |  |  |  |  |  |  |  |  | slightly hygroscopic |  |  |  | stability of the crystal form (assessment in words) [3]: good stability
Cc1cc(N2CCN(Cc3cc(F)c(C(=O)NS(=O)(=O)C4CC4)cc3Cl)CC2)ccc1Cl [crystal form II, 5-chloro-4-((4-(4-chloro-3-methylphenyl)piperazin-1-yl)methyl)-N-(cyclopropylsulfonyl)-2-fluorobenzamide] |  |  |  |  |  |  |  |  |  |  |  |  |  |  |  |  | hygroscopic |  |  |  | 
Cc1cc(N2CCN(Cc3cc(F)c(C(=O)NS(=O)(=O)C4CC4)cc3Cl)CC2)ccc1Cl [crystal form III, 5-chloro-4-((4-(4-chloro-3-methylphenyl)piperazin-1-yl)methyl)-N-(cyclopropylsulfonyl)-2-fluorobenzamide] |  |  |  |  |  |  |  |  |  |  |  |  |  |  |  |  | slightly hygroscopic |  |  |  | stability of the crystal form (assessment in words) [3]: metastable crystal form; crystal form after shaking of mixed forms [3]: converted into crystal form I; crystal form after shaking ([3]; shaken in ACE and MeOH at 50° C. for 1 day): unchanged
Cc1cc(N2CCN(Cc3cc(F)c(C(=O)NS(=O)(=O)C4CC4)cc3Cl)CC2)ccc1Cl [crystal form IV, 5-chloro-4-((4-(4-chloro-3-methylphenyl)piperazin-1-yl)methyl)-N-(cyclopropylsulfonyl)-2-fluorobenzamide] |  |  |  |  |  |  |  |  |  |  |  |  |  |  |  |  | slightly hygroscopic |  |  |  | stability of the crystal form (assessment in words) [3]: metastable crystal form; crystal form after shaking of mixed forms [3]: converted into crystal form I; crystal form after shaking ([3]; shaken in ACE at 50° C. for 1 day): unchanged
